Measurements reported in paper PMC6646438 (Natural Products and Bioprospecting, 2019).

What was measured:
melatonin MT1 receptor = biological target: T1, melatonin MT1 receptor (Homo sapiens, UniProt P48039); assay: Fluo-8 calcium flux agonist assay in HEK293 cells stably expressing human MT1, single concentration […]; type: cell-based; settings: read-out: % agonistic rate at 0.5 mM
T1 construct: gene MTNR1A

melatonin MT2 receptor = biological target: T2, melatonin MT2 receptor (Homo sapiens, UniProt P49286); assay: Fluo-8 calcium flux agonist assay in HEK293 cells stably expressing human MT2, dose-response; type: cell-based
T2 construct: gene MTNR1B
T2 sequence (P49286 1-362): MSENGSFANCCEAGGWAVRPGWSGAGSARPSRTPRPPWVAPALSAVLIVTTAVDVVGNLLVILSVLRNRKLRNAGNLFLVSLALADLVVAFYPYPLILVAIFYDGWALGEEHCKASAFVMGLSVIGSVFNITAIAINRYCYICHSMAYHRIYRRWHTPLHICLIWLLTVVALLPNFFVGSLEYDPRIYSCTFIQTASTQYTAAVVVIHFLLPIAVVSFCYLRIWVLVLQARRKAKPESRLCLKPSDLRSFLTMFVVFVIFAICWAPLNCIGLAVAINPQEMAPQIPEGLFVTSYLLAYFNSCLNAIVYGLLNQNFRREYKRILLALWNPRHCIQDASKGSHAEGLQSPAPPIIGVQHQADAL

T1 sequence (P48039 whole entry): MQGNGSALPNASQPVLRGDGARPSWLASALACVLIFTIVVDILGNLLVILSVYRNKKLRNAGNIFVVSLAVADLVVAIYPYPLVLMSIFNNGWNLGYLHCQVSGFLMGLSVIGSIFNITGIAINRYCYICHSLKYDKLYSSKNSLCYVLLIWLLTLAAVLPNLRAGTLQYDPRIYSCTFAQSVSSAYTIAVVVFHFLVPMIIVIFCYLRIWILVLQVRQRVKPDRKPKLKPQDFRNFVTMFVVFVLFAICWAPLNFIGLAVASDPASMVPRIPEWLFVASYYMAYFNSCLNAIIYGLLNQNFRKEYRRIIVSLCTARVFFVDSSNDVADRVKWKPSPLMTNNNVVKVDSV

For `Oc1ccc(Cc2ccc(O)c(Cc3cc(Cc4ccc(O)cc4)c(O)c(Cc4ccc(O)cc4)c3)c2)cc1` [compound 1, gastropolybenzylol G], the activation at 500 µM (melatonin MT1 receptor) was 55.9 ± 4.84% and the EC50 (melatonin MT2 receptor) was 76.2 µM.
